Measured values taken from patent publication US20240076609A1, “COMPOSITIONS AND METHODS FOR CULTURING AND EXPANDING CELLS” (LIFE TECHNOLOGIES CORPORATION, priority 2017, published 2024).
Several values for one entry are separate records, joined by “and”; a condition that tells them apart may be missing. Equal values may be shown once. Entries after “also recorded” stand apart in the source; their conditions may differ.

What was measured:
[1] = tested on: mixed CD4+ T cells and CD8+ T cells; test: Expansion of mixed CD4+ and CD8+ T cells at set ratios (5:1, 10:1) with 2-DG; type: cell-based, human; conditions: for Cultured T Cell Population Doublings at 5:1 CD4+:CD8+ Cells / Cultured T Cell Population Doublings at 10:1 CD4+:CD8+ Cells: 0.25 mM 2-DG
Description: T cell activation and expansion: T cells (seeding density 1×10^6 vc/mL) were activated with DYNABEADS® Human T-Expander CD3/CD28 (Thermo Fisher Scientific, Cat. No. 11141D) at a ratio of 3 beads per T cell and cultured in serum-free medium, animal origin free medium. T cells were counted on days 5, 7, 10, and 12 on a Vi-CELL XR analyzer (Beckman Coulter, Indianapolis IN) and fed with or without 2-DG (0.25 mM, 0.5 mM, 1 mM, 2 mM, and 4 mM) and 5% human AB serum to a density of 5×10^5 vc/mL on days 3, 5, and 7 and 1×10^6 vc/mL on day 10. For some studies, CD8+ and CD4+ T cells were isolated from PBMCs by negative selection using Untouched Human CD8+ and CD4+ T Cells Kits. Naïve and non-naïve T cells were isolated from enriched T cells by positive selection using CD45RA nanobeads (Miltenyi). CD4+ and CD8+ T cells were mixed at two different CD4+:CD8+ ratios (5:1 and 10:1) to determine the effect of 2-DG on CD8+ T cells. All conditions with and without 2-DG expanded to about 6 to 7 population doublings. Results illustrate that the effect of 2-DG treatment in cell growth was similar in both mixtures. (FIGS. 19 and 20). In FIGS. 38 and 39, CD4+ and CD8+ T cells were mixed at two different CD4:CD8 ratios (5:1 and 10:1) to determine the effect of 2-DG on CD8+ T cells. All conditions with and without 2-DG expanded to about 6 to 7 population doublings. Results illustrate that the effect of 2-DG treatment in cell growth was similar in both mixtures.

[2] = tested on: Primary human T cells; test: CD8+/CD4+ phenotype with 2-DG at different time points and every feed; type: cell-based; conditions: for Fold Increase compared to Baseline: Day 10 vs Day 0 ratio
Description: FIG. 45 represents the data shown in Table 39 which highlights the fold increase in CD8+ to CD4+ ratio of T cells cultured with 2-DG at different time points and every time the cells were fed.
Phenotype: Primary human T cells were expanded for 10 days with and without 2-DG and 5% human AB serum. DYNABEADS® were removed from 2×10^6 cells by magnetic separation. Surface staining was performed with antibodies against CD3 (Invitrogen, Cat. No. CD0329), CD4 (Molecular Probes, Cat. No. A15858), CD8 (Invitrogen, Cat. No. MHCD0828). Flow cytometric analysis was performed on a Gallios flow cytometer and Kaluza software (Beckman Coulter, Indianapolis IN).

[3] = tested on: Primary human T cells; test: Cytokine production upon re-stimulation (35-Plex Luminex) with 2-DG; type: cell-based; conditions: expanded 12 days, multiplexed cytokine assay
From the text: Cytokine Profiles: Primary human T cells from normal donors were negatively isolated from PBMCs with the DYNABEADS® UNTOUCHED™ Human T Cells kit (Thermo Fisher Scientific, Cat. No. 11344D). T cells (seeding density 1×10^6 vc/mL) were activated with DYNABEADS® Human T-Expander CD3/CD28 (Thermo Fisher Scientific, Cat. No. 11141D) at a ratio of 3 beads per T cell and cultured in serum-free and animal origin free medium or control medium X-VIVO™ 15 (Lonza, Cat. No. BE02-054Q) supplemented with 5% human AB serum. T cells were counted on days 5, 7, 10, and 12 on a Vi-CELL XR analyzer (Beckman Coulter, Indianapolis IN) and fed to a density of 5×10^5 vc/mL on days 3, 5, and 7 and to a density of 1×10^6 vc/mL on day 10. DYNABEADS® were magnetically removed from cultures on day 10 and cells were spun to remove conditioned medium and rested overnight in fresh medium. […]
T cells were expanded for 12 days and re-stimulated with DYNABEADS® Human T-Expander CD3/CD28. Cytokine production upon re-stimulation was assessed with Invitrogen Cytokine Human Magnetic 35-Plex Panel for LUMINEX™. […]
T cells were expanded for 12 days and re-stimulated with DYNABEADS® Human T-Expander CD3/CD28. Cytokine production upon re-stimulation was assessed with Invitrogen Cytokine Human Magnetic 35-Plex Panel for LUMINEX™.

[4] = 0.25 mM 2-DG at Day 0, Day 10 of culture
[5] = 0.25 mM 2-DG at Day 0, after 10 days of culture
[6] = 0.25 mM 2-DG at Day 3, Day 10 of culture
[7] = 0.25 mM 2-DG at Day 3, after 10 days of culture
[8] = 0.25 mM 2-DG at Day 5, Day 10 of culture
[9] = 0.25 mM 2-DG at Day 5, after 10 days of culture
[10] = 0.25 mM 2-DG at Day 7, Day 10 of culture
[11] = 0.25 mM 2-DG at Day 7, after 10 days of culture
[12] = 0.25 mM 2-DG at Every Feed, Day 10 of culture
[13] = 0.25 mM 2-DG at Every Feed, after 10 days of culture

O=CC[C@@H](O)[C@H](O)[C@H](O)CO [2-DG, 2-Deoxy-D-Glucose]
Cultured T Cell Population Doublings at 5:1 CD4+:CD8+ Cells ([1]; day 5): 2.84 and 1.95 | Cultured T Cell Population Doublings at 10:1 CD4+:CD8+ Cells ([1]; day 5): 1.97 | Cultured T Cell Population Doublings at 5:1 CD4+:CD8+ Cells ([1]; day 7): 5.44 and 2.84 | Cultured T Cell Population Doublings at 10:1 CD4+:CD8+ Cells ([1]; day 7): 2.98 | Cultured T Cell Population Doublings at 5:1 CD4+:CD8+ Cells ([1]; day 10): 6.17 and 5.44 | Cultured T Cell Population Doublings at 10:1 CD4+:CD8+ Cells ([1]; day 10): 5.67 | Cultured T Cell Population Doublings at 10:1 CD4+:CD8+ Cells ([1]; day 12): 6.25 | population doublings ([1]; CD4+:CD8+ ratios 5:1 and 10:1): 6 to 7 population doublings | % CD4+ [2, 4]: 74.78% | % CD8+ [2, 4]: 22.88% | % Ratios (CD8+/CD4+) [2, 4]: 0.31 | Fold Increase compared to Baseline ([2]; 0.25 mM 2-DG at Day 0): 1.38 | % CD4+ [2, 5]: 74.78% | % CD8+ [2, 5]: 22.88% | % Ratios (CD8+/CD4+) [2, 5]: 0.31 | % CD4+ [2, 6]: 70.62% | % CD8+ [2, 6]: 25.76% | % Ratios (CD8+/CD4+) [2, 6]: 0.36 | Fold Increase compared to Baseline ([2]; 0.25 mM 2-DG at Day 3): 1.64 | % CD4+ [2, 7]: 70.62% | % CD8+ [2, 7]: 25.76% | % Ratios (CD8+/CD4+) [2, 7]: 0.36 | % CD4+ [2, 8]: 76.18% | % CD8+ [2, 8]: 21.26% | % Ratios (CD8+/CD4+) [2, 8]: 0.28 | Fold Increase compared to Baseline ([2]; 0.25 mM 2-DG at Day 5): 1.26 | % CD4+ [2, 9]: 76.18% | % CD8+ [2, 9]: 21.26% | % Ratios (CD8+/CD4+) [2, 9]: 0.28 | % CD4+ [2, 10]: 73.28% | % CD8+ [2, 10]: 23.91% | % Ratios (CD8+/CD4+) [2, 10]: 0.33 | Fold Increase compared to Baseline ([2]; 0.25 mM 2-DG at Day 7): 1.47 | % CD4+ [2, 11]: 73.28% | % CD8+ [2, 11]: 23.91% | % Ratios (CD8+/CD4+) [2, 11]: 0.33 | % CD4+ [2, 12]: 76.76% | % CD8+ [2, 12]: 20.35% | % Ratios (CD8+/CD4+) [2, 12]: 0.27 | Fold Increase compared to Baseline ([2]; 0.25 mM 2-DG at Every Feed): 1.19 | % CD4+ [2, 13]: 76.76% | % CD8+ [2, 13]: 20.35% | % Ratios (CD8+/CD4+) [2, 13]: 0.27 | Fold Increase in CD8+ to CD4+ ratio ([2]; 0.25 mM 2-DG every time cells were fed): 3 fold | Fold Increase in CD8+ to CD4+ ratio ([2]; 0.25 mM 2-DG on day 7 only): 3 fold | cytokine production / function of the cells upon re-stimulation [3]: no change in cytokine production; also recorded: does not alter the function of the cells
